Test results published in patent US12540131B2 (Merck Sharp & Dohme LLC, priority 2019, dated 2026).

Molecular target: GST tagged truncated human mutant G2019S LRRK2 (Homo sapiens (Human), UniProt Q5S007, G2019S)
Assay: LRRK2 Km ATP LanthaScreen Assay
Assay type: biochemical
Conditions: G2019S LRRK2, 134 μM ATP (Km ATP), mean values; for IC50: read-out: LRRK2 pIC50 (converted)
Method in brief: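 Enzyme (GST-tagged, truncated) was preincubated with compound for 15 min at RT in 50 mM Tris pH 8.5, 10 mM MgCl2, 0.01% Brij-35, 1 mM EGTA, 2 mM DTT and 0.05 mM orthovanadate. Fluorescein-LRRKtide and 134 μM ATP (Km) were then added for 90 min. EDTA and Tb-anti-pERM antibody stopped the reaction; the TR-FRET 520/495 ratio gave 4-parameter IC50s, reported as mean pIC50.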

GST tagged truncated human mutant G2019S LRRK2, sequence (Q5S007 970-2527 G2019S): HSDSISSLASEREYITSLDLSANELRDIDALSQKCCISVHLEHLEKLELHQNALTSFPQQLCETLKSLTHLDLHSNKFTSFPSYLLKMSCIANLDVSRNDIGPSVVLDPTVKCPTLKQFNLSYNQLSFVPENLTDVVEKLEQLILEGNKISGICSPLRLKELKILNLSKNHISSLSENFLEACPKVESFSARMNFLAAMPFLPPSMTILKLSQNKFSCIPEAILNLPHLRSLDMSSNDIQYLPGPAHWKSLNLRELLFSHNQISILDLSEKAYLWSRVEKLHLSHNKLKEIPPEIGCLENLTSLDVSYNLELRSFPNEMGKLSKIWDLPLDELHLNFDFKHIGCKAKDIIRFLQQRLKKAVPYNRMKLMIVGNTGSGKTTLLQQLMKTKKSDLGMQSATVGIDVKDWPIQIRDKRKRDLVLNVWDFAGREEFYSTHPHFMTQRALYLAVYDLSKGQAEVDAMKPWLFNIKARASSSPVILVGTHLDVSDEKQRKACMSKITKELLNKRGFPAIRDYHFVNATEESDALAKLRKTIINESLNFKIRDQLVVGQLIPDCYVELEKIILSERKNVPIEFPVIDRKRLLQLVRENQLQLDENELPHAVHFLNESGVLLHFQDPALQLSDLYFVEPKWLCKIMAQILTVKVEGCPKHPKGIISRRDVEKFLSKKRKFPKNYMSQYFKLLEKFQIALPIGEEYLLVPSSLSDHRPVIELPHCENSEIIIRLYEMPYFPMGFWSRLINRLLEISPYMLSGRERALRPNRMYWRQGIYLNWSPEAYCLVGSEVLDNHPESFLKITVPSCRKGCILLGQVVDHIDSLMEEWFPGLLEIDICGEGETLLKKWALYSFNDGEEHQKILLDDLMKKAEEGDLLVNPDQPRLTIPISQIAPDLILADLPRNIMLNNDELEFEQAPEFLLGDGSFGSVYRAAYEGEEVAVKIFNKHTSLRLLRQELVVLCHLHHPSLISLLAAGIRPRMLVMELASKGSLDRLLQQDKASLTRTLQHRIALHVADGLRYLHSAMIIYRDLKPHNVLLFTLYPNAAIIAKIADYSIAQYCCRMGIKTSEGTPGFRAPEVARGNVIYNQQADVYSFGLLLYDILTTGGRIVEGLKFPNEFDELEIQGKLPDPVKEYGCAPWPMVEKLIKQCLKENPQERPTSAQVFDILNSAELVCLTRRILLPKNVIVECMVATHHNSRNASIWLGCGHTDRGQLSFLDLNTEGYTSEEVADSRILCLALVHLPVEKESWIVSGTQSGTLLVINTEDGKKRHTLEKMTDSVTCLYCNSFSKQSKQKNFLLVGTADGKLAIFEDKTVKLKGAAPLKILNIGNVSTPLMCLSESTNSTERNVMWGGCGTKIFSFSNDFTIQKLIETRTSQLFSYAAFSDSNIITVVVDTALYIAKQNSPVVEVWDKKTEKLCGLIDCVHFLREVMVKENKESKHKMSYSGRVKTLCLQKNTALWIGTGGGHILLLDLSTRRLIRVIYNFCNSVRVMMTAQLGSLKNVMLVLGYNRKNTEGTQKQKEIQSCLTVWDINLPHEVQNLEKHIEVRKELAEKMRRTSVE

| Structure (SMILES) | LRRK2 pIC50 | IC50 [nM] |
| --- | --- | --- |
| CC1(n2ncc(Nc3ncc4cc(Cl)c([C@@H]5CCNC[C@H]5F)cc4n3)c2Cl)CC1 (single isomer, unassigned) [Ex-4.91, (3S,4S) or (3R,4R) 6-chloro-N-[5-chloro-1-(1-methylcyclopropyl)-1H-pyrazol-4-yl]-7-(3-fluoropiperidin-4-yl)quinazolin-2-amine] | >9.20 |  |
| CC1(n2ncc(Nc3ncc4cc(Cl)c([C@H]5CCNC[C@@H]5F)cc4n3)c2Cl)CC1 (single isomer, unassigned) [Ex-4.92, (3S,4S) or (3R,4R) 6-chloro-N-[5-chloro-1-(1-methylcyclopropyl)-1H-pyrazol-4-yl]-7-(3-fluoropiperidin-4-yl)quinazolin-2-amine] | >9.20 |  |
| CC1(N2CC[C@@H](c3cc4nc(Nc5cnn(C6CC6)c5Cl)ncc4cc3Cl)[C@H](F)C2)COC1 (single isomer, unassigned) [Ex-4.99, (3S,4S) or (3R,4R) 6-chloro-N-(5-chloro-1-cyclopropyl-1H-pyrazol-4-yl)-7-[3-fluoro-1-(3-methyloxetan-3-yl)piperidin-4-yl]quinazolin-2-amine] | 8.01 |  |
| N#CC1COCC1N1CCC(c2cc3nc(Nc4cnn(C5CC5)c4Cl)ncc3cc2Cl)CC1 (single isomer, unassigned) [Ex-4.102, (3S,4S) or (3R,4R) or (3S,4R) or (3R,4S) 4-(4-(6-chloro-2-((5-chloro-1-cyclopropyl-1H-pyrazol-4-yl)amino)quinazolin-7-yl)piperidin-1-yl)tetrahydrofuran-3-carbonitrile] | >9.20 |  |
| N#CC1COCC1N1CCC(c2cc3nc(Nc4cnn(C5CC5)c4Cl)ncc3cc2Cl)CC1 (single isomer, unassigned) [Ex-4.103, (3S,4S) or (3R,4R) or (3S,4R) or (3R,4S) 4-(4-(6-chloro-2-((5-chloro-1-cyclopropyl-1H-pyrazol-4-yl)amino)quinazolin-7-yl)piperidin-1-yl)tetrahydrofuran-3-carbonitrile] | 8.49 |  |
| O[C@H]1COC[C@H]1N1CCC(c2cc3nc(Nc4cnn(C5CC5)c4Cl)ncc3cc2Cl)CC1 (single isomer, unassigned) [Ex-4.104, (3S,4S) or (3R,4R) 4-(4-(6-chloro-2-((5-chloro-1-cyclopropyl-1H-pyrazol-4-yl)amino)quinazolin-7-yl)piperidin-1-yl)tetrahydrofuran-3-ol] | >9.20 |  |
| O[C@@H]1COC[C@@H]1N1CCC(c2cc3nc(Nc4cnn(C5CC5)c4Cl)ncc3cc2Cl)CC1 (single isomer, unassigned) [Ex-4.105, (3S,4S) or (3R,4R) 4-(4-(6-chloro-2-((5-chloro-1-cyclopropyl-1H-pyrazol-4-yl)amino)quinazolin-7-yl)piperidin-1-yl)tetrahydrofuran-3-ol] | 8.51 |  |
| CC1CC(c2cc3nc(Nc4cnn(C5CC5)c4Cl)ncc3cc2Cl)CCN1C1COC1 (single isomer, unassigned) [Ex-4.106, (2S,4S) or (2R,4R) or (2S,4R) or (2R,4S) 6-chloro-N-(5-chloro-1-cyclopropyl-1H-pyrazol-4-yl)-7-(2-methyl-1-(oxetan-3-yl)piperidin-4-yl)quinazolin-2-amine] | >9.20 |  |
| CC1CC(c2cc3nc(Nc4cnn(C5CC5)c4Cl)ncc3cc2Cl)CCN1C1COC1 (single isomer, unassigned) [Ex-4.107, (2S,4S) or (2R,4R) or (2S,4R) or (2R,4S) 6-chloro-N-(5-chloro-1-cyclopropyl-1H-pyrazol-4-yl)-7-(2-methyl-1-(oxetan-3-yl)piperidin-4-yl)quinazolin-2-amine] | 8.52 |  |
| N#CC1CCC(N2CC[C@@H](c3cc4nc(Nc5cnn(C6CC6)c5Cl)ncc4cc3Cl)[C@H](F)C2)C1 (single isomer, unassigned) [Ex-4.108, (1R,3S)-3-((3S,4S) or (1S,3R)-3-((3S,4S) or (1R,3R)-3-((3S,4S) or (1S,3S)-3-((3S,4S) or (1R,3S)-3-((3R,4R) or (1S,3R)-3-((3R,4R) or (1R,3R)-3-((3R,4R) or 1S,3S)-3-((3R,4R) 4-(6-chloro-2-((5-chloro-1-cyclopropyl-1H-pyrazol-4-yl)amino)quinazolin-7-yl)-3-fluoropiperidin-1-yl)cyclopentane-1-carbonitrile] | 8.49 |  |
| N#CC1CCC(N2CC[C@@H](c3cc4nc(Nc5cnn(C6CC6)c5Cl)ncc4cc3Cl)[C@H](F)C2)C1 (single isomer, unassigned) [Ex-4.109, (1R,3S)-3-((3S,4S) or (1S,3R)-3-((3S,4S) or (1R,3R)-3-((3S,4S) or (1S,3S)-3-((3S,4S) or (1R,3S)-3-((3R,4R) or (1S,3R)-3-((3R,4R) or (1R,3R)-3-((3R,4R) or 1S,3S)-3-((3R,4R) 4-(6-chloro-2-((5-chloro-1-cyclopropyl-1H-pyrazol-4-yl)amino)quinazolin-7-yl)-3-fluoropiperidin-1-yl)cyclopentane-1-carbonitrile] | 7.99 |  |
| N#CC1CCC(N2CC[C@@H](c3cc4nc(Nc5cnn(C6CC6)c5Cl)ncc4cc3Cl)[C@H](F)C2)C1 (single isomer, unassigned) [Ex-4.110, (1R,3S)-3-((3S,4S) or (1S,3R)-3-((3S,4S) or (1R,3R)-3-((3S,4S) or (1S,3S)-3-((3S,4S) or (1R,3S)-3-((3R,4R) or (1S,3R)-3-((3R,4R) or (1R,3R)-3-((3R,4R) or 1S,3S)-3-((3R,4R) 4-(6-chloro-2-((5-chloro-1-cyclopropyl-1H-pyrazol-4-yl)amino)quinazolin-7-yl)-3-fluoropiperidin-1-yl)cyclopentane-1-carbonitrile] | 8.73 |  |
| N#CC1CCC(N2CC[C@@H](c3cc4nc(Nc5cnn(C6CC6)c5Cl)ncc4cc3Cl)[C@H](F)C2)C1 (single isomer, unassigned) [Ex-4.111, (1R,3S)-3-((3S,4S) or (1S,3R)-3-((3S,4S) or (1R,3R)-3-((3S,4S) or (1S,3S)-3-((3S,4S) or (1R,3S)-3-((3R,4R) or (1S,3R)-3-((3R,4R) or (1R,3R)-3-((3R,4R) or 1S,3S)-3-((3R,4R) 4-(6-chloro-2-((5-chloro-1-cyclopropyl-1H-pyrazol-4-yl)amino)quinazolin-7-yl)-3-fluoropiperidin-1-yl)cyclopentane-1-carbonitrile] | 8.55 |  |
| Clc1cc2cnc(Nc3cnn(C4CC4)c3Cl)nc2cc1C1CCN(C2COC3(CCC3)C2)CC1 (single isomer, unassigned) [Ex-4.114, (R) or (S) 7-(1-(5-oxaspiro[3.4]octan-7-yl)piperidin-4-yl)-6-chloro-N-(5-chloro-1-cyclopropyl-1H-pyrazol-4-yl)quinazolin-2-amine] |  | 10 |
| Clc1cc2cnc(Nc3cnn(C4CC4)c3Cl)nc2cc1C1CCN(C2COC3(CCC3)C2)CC1 (single isomer, unassigned) [Ex-4.115, (R) or (S) 7-(1-(5-oxaspiro[3.4]octan-7-yl)piperidin-4-yl)-6-chloro-N-(5-chloro-1-cyclopropyl-1H-pyrazol-4-yl)quinazolin-2-amine] |  | 0.851 |
| CC1(C)CC(N2CCC(c3cc4nc(Nc5cnn(C6CC6)c5Cl)ncc4cc3Cl)CC2)CO1 (single isomer, unassigned) [Ex-4.116, (R) or (S) 6-chloro-N-(5-chloro-1-cyclopropyl-1H-pyrazol-4-yl)-7-(1-(5,5-dimethyltetrahydrofuran-3-yl)piperidin-4-yl)quinazolin-2-amine] |  | 4.47 |
